# Test: Inhibition of IL-5 in mouse Y16 cells assessed as reduction in cell proliferation after 48 hrs by WST-1 assay
row,SMILES,IC50 [µM]
1,O=c1c(Cc2ccc(O)cc2)coc2cccc(OCC3CCCCC3)c12,5
2,COc1ccc(/C=C2\Cc3cccc(OCc4ccc(OC)cc4)c3C2=O)cc1,> 30
3,O=C1c2c(cccc2OCc2ccccc2)CC1Cc1ccc(O)cc1 (stereo unspecified),21
4,O=C1c2c(cccc2OCC2CCCCC2)CC1Cc1ccc(O)cc1 (stereo unspecified),4
5,O=C1c2c(cccc2OCC2CCCCC2)CC1Cc1ccccc1O (stereo unspecified),> 30
6,O=C1c2c(cccc2OCCC2CCCCC2)CC1Cc1ccc(O)cc1 (stereo unspecified),18
7,O=C1c2c(O)cccc2CC1Cc1ccc(O)cc1 (stereo unspecified),> 30
8,COCOc1ccc(CC2Cc3cccc(OCC4CCCCC4)c3C2=O)cc1 (stereo unspecified),17
9,COc1ccc(/C=C2\Cc3cccc(OCC4CCCCC4)c3C2=O)cc1,> 30
10,O=C1/C(=C/c2ccccc2)Cc2cccc(O)c21,> 30
11,COc1ccc(COc2cccc3c2C(=O)/C(=C/c2ccc(O)cc2)C3)cc1,> 30
12,COCOc1ccc(/C=C2\Cc3cccc(OCC4CCCCC4)c3C2=O)cc1,> 30
13,COc1ccc(COc2cccc3c2C(=O)/C(=C/c2ccc(C)cc2)C3)cc1,> 30
14,O=C1c2c(cccc2OCC2CCCCC2)CC1Cc1ccc(Cl)cc1 (stereo unspecified),20.5
15,O=C1/C(=C/c2ccc(O)cc2)Cc2cccc(O)c21,> 30
16,COc1ccc(COc2cccc3c2C(=O)/C(=C/c2ccccc2)C3)cc1,> 30
17,O=C1c2c(cccc2OCCc2ccccc2)CC1Cc1ccccc1O (stereo unspecified),> 30
18,O=C1c2c(cccc2OCCc2ccccc2)CC1Cc1cccc(O)c1 (stereo unspecified),28
19,O=C1/C(=C/c2ccc(O)cc2)Cc2cccc(OCc3ccc([N+](=O)[O-])cc3)c21,> 30
20,O=C1c2c(cccc2OCCc2ccccc2)CC1Cc1ccc(O)cc1 (stereo unspecified),26
21,Cc1ccc(CC2Cc3cccc(OCC4CCCCC4)c3C2=O)cc1 (stereo unspecified),24.5
22,O=C1/C(=C/c2ccc(O)cc2)Cc2cccc(OCC3CCCCC3)c21,> 30
23,COc1ccc(CC2Cc3cccc(OCC4CCCCC4)c3C2=O)cc1 (stereo unspecified),> 30
24,COc1ccc(/C=C2\Cc3cccc(O)c3C2=O)cc1,> 30
25,COc1ccc(COc2cccc3c2C(=O)/C(=C/c2ccc(Cl)cc2)C3)cc1,> 30
26,O=C1c2c(cccc2OCC2CCCCC2)CC1Cc1cccc(O)c1 (stereo unspecified),6

# — BindingDB's records for doi:10.1016/j.ejmech.2018.04.030 (Chungnam National University, 2018)
